# Columns and labels:
# [1] = target: EphA4 kinase (h) (Homo sapiens (Human), UniProt P54764); assay: Kinase selectivity panel: EphA4 kinase (h); format: biochemical; details: 10 μM in duplicate, read-out: % inhibition of control values
# Procedure: (§1) (a) Compounds 1 and 2 were tested against a panel of 60 kinases in order to assess their selectivity. The assays were chosen taking into consideration the diversity of assay families.
# (§2) Tested kinases were representative of following kinase sub-families: • protein-serine/threonine kinases; • protein-tyrosine kinases; • other kinases; and • atypical kinases.
# (§3) Human recombinant kinases were incubated in the presence of specific peptide substrates plus ATP for different times (10, 15, 30, 60 or 90 minutes) at 22° C. Phosphorylated substrate was detected by LANCE or HTRF technology (CISBIO, MA, USA). The compounds were tested at 10 μM in duplicate.
# (§4) The results are expressed as a percentage of inhibition of control specific activity obtained in the presence of the test compounds and are reported in the following Table 5.
# (§5) (b) Compounds 3, 8, 29 and 31 were tested against the same panel of 60 kinases under the same conditions described above for compounds 1 and 2.
# (§6) The results are expressed as a percent of inhibition of control specific activity obtained in the presence of the test compounds and are reported in the following Table 6.
# [2] = target: FGFR1 kinase (h) (Homo sapiens (Human), UniProt P11362); assay: Kinase selectivity panel: FGFR1 kinase (h); format: biochemical; details: 10 μM in duplicate, read-out: % inhibition of control values
# Procedure: as §1, §2, §3, §4, §5, §6
# [3] = target: FGFR4 kinase (h) (Homo sapiens (Human), UniProt P22455); assay: Kinase selectivity panel: FGFR4 kinase (h); format: biochemical; details: 10 μM in duplicate, read-out: % inhibition of control values
# Procedure: as §1, §2, §3, §4, §5, §6
# [4] = target: IGF1R kinase (h) (Homo sapiens (Human), UniProt P08069); assay: Kinase selectivity panel: IGF1R kinase (h); format: biochemical; details: 10 μM in duplicate, read-out: % inhibition of control values
# Procedure: as §1, §2, §3, §4, §5, §6
# [5] = target: Ret kinase (h) (Homo sapiens (Human), UniProt P07949); assay: Kinase selectivity panel: Ret kinase (h); format: biochemical; details: 10 μM in duplicate, read-out: % inhibition of control values
# Procedure: as §1, §2, §3, §4, §5, §6
# [6] = target: JAK2 (h) (Homo sapiens (Human), UniProt O60674); assay: Kinase selectivity panel: JAK2 (h); format: biochemical; details: 10 μM in duplicate, read-out: % inhibition of control values
# Procedure: as §1, §2, §3, §4, §5, §6
# [7] = target: Fyn kinase (h) (Homo sapiens (Human), UniProt P06241); assay: Kinase selectivity panel: Fyn kinase (h); format: biochemical; details: 10 μM in duplicate, read-out: % inhibition of control values
# Procedure: as §1, §2, §3, §4, §5, §6
# [8] = target: Src kinase (h) (Homo sapiens (Human), UniProt P12931); assay: Kinase selectivity panel: Src kinase (h); format: biochemical; details: 10 μM in duplicate, read-out: % inhibition of control values
# Procedure: as §1, §2, §3, §4, §5, §6
# [9] = target: GSK3beta (h) (Homo sapiens (Human), UniProt P49841); assay: Kinase selectivity panel: GSK3beta (h); format: biochemical; details: GSK3beta (h); 10 μM in duplicate; read-out: % inhibition of control values
# Procedure: as §1, §2, §3, §4, §6
# [10] = target: DYRK1a (h) (Homo sapiens (Human), UniProt Q13627); assay: Kinase selectivity panel: DYRK1a (h); format: biochemical; details: 10 μM in duplicate, read-out: % inhibition of control values
# Procedure: as §1, §2, §3, §4, §5, §6
# [11] = target: PCTAIRE1 kinase (h) (Homo sapiens (Human), UniProt Q00536); assay: Kinase selectivity panel: PCTAIRE1 kinase (h); format: biochemical; details: 10 μM in duplicate, read-out: % inhibition of control values
# Procedure: as §1, §2, §3, §4, §5, §6
# [12] = target: CDC2/CDK1 (h) (cycB) (Homo sapiens (Human), UniProt P06493); assay: Kinase selectivity panel: CDC2/CDK1 (h) (cycB); format: biochemical; details: 10 μM in duplicate, read-out: % inhibition of control values
# Procedure: as §1, §2, §3, §4, §5, §6
# [13] = target: CDK2 (h) (cycA) (Homo sapiens (Human), UniProt P24941); assay: Kinase selectivity panel: CDK2 (h) (cycA); format: biochemical; details: 10 μM in duplicate, read-out: % inhibition of control values
# Procedure: as §1, §2, §3, §4, §5, §6
# [14] = target: CDK5/p35 (h) (Homo sapiens (Human), UniProt Q00535); assay: Kinase selectivity panel: CDK5/p35 (h); format: biochemical; details: 10 μM in duplicate, read-out: % inhibition of control values
# Procedure: as §1, §2, §3, §4, §5, §6
# [15] = target: p38alpha kinase (h) (Homo sapiens (Human), UniProt Q16539); assay: Kinase selectivity panel: p38alpha kinase (h); format: biochemical; details: 10 μM in duplicate, read-out: % inhibition of control values
# Procedure: as §1, §2, §3, §4, §5, §6
# [16] = target: p38delta kinase (h) (Homo sapiens (Human), UniProt O15264); assay: Kinase selectivity panel: p38delta kinase (h); format: biochemical; details: 10 μM in duplicate, read-out: % inhibition of control values
# Procedure: as §1, §2, §3, §4, §5, §6
# [17] = target: CHK1 (h) (Homo sapiens (Human), UniProt O14757); assay: Kinase selectivity panel: CHK1 (h); format: biochemical; details: 10 μM in duplicate, read-out: % inhibition of control values
# Procedure: as §1, §2, §3, §4, §5, §6
# [18] = system: AMPKalpha; assay: Kinase selectivity panel: AMPKalpha; format: biochemical, human; details: 10 μM in duplicate
# Procedure: as §1, §2, §3, §4, §5, §6
# [19] = target: CaMK4 (h) (Homo sapiens (Human), UniProt Q16566); assay: Kinase selectivity panel: CaMK4 (h); format: biochemical; details: 10 μM in duplicate, read-out: % inhibition of control values
# Procedure: as §1, §2, §3, §4, §5, §6
# [20] = target: DAPK1 (h) (Homo sapiens (Human), UniProt P53355); assay: Kinase selectivity panel: DAPK1 (h); format: biochemical; details: 10 μM in duplicate, read-out: % inhibition of control values
# Procedure: as §1, §2, §3, §4, §5, §6
# [21] = target: Pim2 kinase (h) (Homo sapiens (Human), UniProt Q9P1W9); assay: Kinase selectivity panel: Pim2 kinase (h); format: biochemical; details: 10 μM in duplicate, read-out: % inhibition of control values
# Procedure: as §1, §2, §3, §4, §5, §6
# [22] = target: MNK2 (h) (Homo sapiens (Human), UniProt Q9HBH9); assay: Kinase selectivity panel: MNK2 (h); format: biochemical; details: 10 μM in duplicate, read-out: % inhibition of control values
# Procedure: as §1, §2, §3, §4, §5, §6
# [23] = target: PhKgamma 2 (h) (Homo sapiens (Human), UniProt P15735); assay: Kinase selectivity panel: PhKgamma 2 (h); format: biochemical; details: 10 μM in duplicate, read-out: % inhibition of control values
# Procedure: as §1, §2, §3, §4, §5, §6
# [24] = target: PDK1 (h) (Homo sapiens (Human), UniProt O15530); assay: Kinase selectivity panel: PDK1 (h); format: biochemical; details: 10 μM in duplicate, read-out: % inhibition of control values
# Procedure: as §1, §2, §3, §4, §5, §6
# [25] = target: PKCbeta 1 (h) (Homo sapiens (Human), UniProt P05771); assay: Kinase selectivity panel: PKCbeta 1 (h); format: biochemical; details: 10 μM in duplicate, read-out: % inhibition of control values
# Procedure: as §1, §2, §3, §4, §5, §6
# [26] = target: PKCgamma (h) (Homo sapiens (Human), UniProt P05129); assay: Kinase selectivity panel: PKCgamma (h); format: biochemical; details: 10 μM in duplicate, read-out: % inhibition of control values
# Procedure: as §1, §2, §3, §4, §5, §6
# [27] = target: PAK1 (h) (Homo sapiens (Human), UniProt Q13153); assay: Kinase selectivity panel: PAK1 (h); format: biochemical; details: 10 μM in duplicate, read-out: % inhibition of control values
# Procedure: as §1, §2, §3, §4, §5, §6
# [28] = target: HGK (h) (MAP4K4) (Homo sapiens (Human), UniProt O95819); assay: Kinase selectivity panel: HGK (h) (MAP4K4); format: biochemical; details: 10 μM in duplicate, read-out: % inhibition of control values
# Procedure: as §1, §2, §3, §4, §5, §6
# [29] = target: DLK1 (h) (MAP3K12) (Homo sapiens (Human), UniProt Q12852); assay: Kinase selectivity panel: DLK1 (h) (MAP3K12); format: biochemical; details: 10 μM in duplicate, read-out: % inhibition of control values
# Procedure: as §1, §2, §3, §4, §5, §6
# [30] = target: IKKalpha (h) (Homo sapiens (Human), UniProt O15111); assay: Kinase selectivity panel: IKKalpha (h); format: biochemical; details: 10 μM in duplicate, read-out: % inhibition of control values
# Procedure: as §1, §2, §3, §4, §5, §6
# [31] = target: IKKepsilon (h) (IKBKE) (Homo sapiens (Human), UniProt Q14164); assay: Kinase selectivity panel: IKKepsilon (h) (IKBKE); format: biochemical; details: 10 μM in duplicate, read-out: % inhibition of control values
# Procedure: as §1, §2, §3, §4, §5, §6
# [32] = target: MYT1 kinase (h) (Homo sapiens (Human), UniProt Q99640); assay: Kinase selectivity panel: MYT1 kinase (h); format: biochemical; details: 10 μM in duplicate, read-out: % inhibition of control values
# Procedure: as §1, §2, §3, §4, §5, §6
# [33] = target: NEK7 (h) (Homo sapiens (Human), UniProt Q8TDX7); assay: Kinase selectivity panel: NEK7 (h); format: biochemical; details: 10 μM in duplicate, read-out: % inhibition of control values
# Procedure: as §1, §2, §3, §4, §5, §6
# [34] = target: AurB/Aur1 kinase (h) (Homo sapiens (Human), UniProt Q96GD4); assay: Kinase selectivity panel: AurB/Aur1 kinase (h); format: biochemical; details: 10 μM in duplicate, read-out: % inhibition of control values
# Procedure: as §1, §2, §3, §4, §5, §6
# PDK1 (h), sequence (O15530 whole entry): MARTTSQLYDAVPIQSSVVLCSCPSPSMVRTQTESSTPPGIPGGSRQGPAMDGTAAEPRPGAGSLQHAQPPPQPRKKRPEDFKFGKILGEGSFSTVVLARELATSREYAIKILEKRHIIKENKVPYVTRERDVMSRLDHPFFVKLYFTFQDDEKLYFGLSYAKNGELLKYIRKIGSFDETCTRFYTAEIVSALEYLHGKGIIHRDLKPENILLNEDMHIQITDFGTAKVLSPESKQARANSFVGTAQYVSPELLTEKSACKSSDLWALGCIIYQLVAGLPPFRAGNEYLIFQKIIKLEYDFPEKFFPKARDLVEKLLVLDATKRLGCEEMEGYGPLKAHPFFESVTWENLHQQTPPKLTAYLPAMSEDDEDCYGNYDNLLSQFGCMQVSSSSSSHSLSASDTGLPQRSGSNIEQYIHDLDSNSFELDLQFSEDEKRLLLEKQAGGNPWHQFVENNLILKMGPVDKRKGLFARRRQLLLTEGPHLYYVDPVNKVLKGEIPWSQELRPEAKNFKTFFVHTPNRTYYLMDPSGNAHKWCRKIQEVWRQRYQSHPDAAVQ
# MNK2 (h), sequence (Q9HBH9 whole entry): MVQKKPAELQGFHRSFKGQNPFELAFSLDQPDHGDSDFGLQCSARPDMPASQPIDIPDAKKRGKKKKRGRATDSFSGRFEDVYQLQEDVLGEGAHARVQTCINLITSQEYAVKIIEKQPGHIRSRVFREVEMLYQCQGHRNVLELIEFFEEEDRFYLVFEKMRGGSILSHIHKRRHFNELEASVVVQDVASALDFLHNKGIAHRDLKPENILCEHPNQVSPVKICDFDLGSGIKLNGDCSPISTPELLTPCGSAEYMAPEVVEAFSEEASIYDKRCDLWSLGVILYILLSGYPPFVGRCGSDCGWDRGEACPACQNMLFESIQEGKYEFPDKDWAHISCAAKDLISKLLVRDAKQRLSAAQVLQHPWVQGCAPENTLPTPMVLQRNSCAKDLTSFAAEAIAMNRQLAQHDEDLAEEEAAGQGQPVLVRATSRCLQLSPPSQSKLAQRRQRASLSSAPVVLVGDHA
# PAK1 (h), sequence (Q13153 whole entry): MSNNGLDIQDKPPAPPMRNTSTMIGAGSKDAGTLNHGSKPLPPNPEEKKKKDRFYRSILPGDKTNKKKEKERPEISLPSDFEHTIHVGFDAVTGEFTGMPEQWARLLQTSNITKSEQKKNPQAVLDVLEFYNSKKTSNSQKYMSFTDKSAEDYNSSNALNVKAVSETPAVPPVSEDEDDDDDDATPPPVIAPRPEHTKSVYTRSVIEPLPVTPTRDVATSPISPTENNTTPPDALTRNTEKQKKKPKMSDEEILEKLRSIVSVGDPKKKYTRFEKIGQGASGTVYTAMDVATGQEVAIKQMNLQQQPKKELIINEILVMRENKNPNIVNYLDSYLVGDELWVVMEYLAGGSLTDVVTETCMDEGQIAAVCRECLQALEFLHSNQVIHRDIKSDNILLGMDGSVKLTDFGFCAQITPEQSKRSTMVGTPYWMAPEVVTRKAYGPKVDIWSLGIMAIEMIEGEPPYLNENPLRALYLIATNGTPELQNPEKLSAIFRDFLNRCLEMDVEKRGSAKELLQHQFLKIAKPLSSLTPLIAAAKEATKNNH
# JAK2 (h), sequence (O60674 whole entry): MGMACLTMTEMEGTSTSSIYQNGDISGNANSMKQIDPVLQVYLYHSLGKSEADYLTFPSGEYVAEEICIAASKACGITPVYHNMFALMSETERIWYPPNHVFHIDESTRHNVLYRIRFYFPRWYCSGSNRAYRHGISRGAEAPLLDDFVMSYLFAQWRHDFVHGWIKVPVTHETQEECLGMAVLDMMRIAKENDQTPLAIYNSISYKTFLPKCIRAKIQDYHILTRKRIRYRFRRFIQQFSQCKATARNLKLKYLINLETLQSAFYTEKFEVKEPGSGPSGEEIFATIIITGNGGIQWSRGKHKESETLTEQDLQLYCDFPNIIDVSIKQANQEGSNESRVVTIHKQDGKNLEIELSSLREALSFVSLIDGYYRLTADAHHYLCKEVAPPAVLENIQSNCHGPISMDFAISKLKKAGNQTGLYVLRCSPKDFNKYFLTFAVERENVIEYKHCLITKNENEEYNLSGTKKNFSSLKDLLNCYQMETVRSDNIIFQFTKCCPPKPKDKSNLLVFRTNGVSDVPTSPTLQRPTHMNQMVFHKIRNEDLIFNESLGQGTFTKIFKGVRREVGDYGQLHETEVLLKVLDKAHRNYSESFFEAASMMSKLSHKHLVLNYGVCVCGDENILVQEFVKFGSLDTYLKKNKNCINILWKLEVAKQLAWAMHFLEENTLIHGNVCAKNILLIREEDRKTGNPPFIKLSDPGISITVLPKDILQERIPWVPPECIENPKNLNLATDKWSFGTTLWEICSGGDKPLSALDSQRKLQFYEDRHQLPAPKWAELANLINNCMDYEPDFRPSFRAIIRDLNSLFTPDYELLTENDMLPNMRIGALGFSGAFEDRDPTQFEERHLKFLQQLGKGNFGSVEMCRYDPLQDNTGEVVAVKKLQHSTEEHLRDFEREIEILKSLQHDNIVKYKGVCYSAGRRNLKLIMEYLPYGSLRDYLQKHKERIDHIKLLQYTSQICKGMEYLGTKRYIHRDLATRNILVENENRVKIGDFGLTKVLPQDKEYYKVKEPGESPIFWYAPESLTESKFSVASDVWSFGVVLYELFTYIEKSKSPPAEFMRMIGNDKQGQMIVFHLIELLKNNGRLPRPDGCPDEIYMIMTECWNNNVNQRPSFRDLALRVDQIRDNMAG
# p38delta kinase (h), sequence (O15264 whole entry): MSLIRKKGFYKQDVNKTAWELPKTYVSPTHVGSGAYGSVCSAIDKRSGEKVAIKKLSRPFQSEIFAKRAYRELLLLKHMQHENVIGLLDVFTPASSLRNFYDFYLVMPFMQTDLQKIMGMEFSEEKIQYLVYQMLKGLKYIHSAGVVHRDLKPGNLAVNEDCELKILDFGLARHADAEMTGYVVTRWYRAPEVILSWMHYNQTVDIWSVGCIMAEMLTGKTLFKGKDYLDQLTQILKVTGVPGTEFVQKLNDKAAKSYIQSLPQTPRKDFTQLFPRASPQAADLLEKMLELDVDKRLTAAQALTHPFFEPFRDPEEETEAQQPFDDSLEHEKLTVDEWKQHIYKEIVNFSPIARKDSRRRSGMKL
# PhKgamma 2 (h), sequence (P15735 whole entry): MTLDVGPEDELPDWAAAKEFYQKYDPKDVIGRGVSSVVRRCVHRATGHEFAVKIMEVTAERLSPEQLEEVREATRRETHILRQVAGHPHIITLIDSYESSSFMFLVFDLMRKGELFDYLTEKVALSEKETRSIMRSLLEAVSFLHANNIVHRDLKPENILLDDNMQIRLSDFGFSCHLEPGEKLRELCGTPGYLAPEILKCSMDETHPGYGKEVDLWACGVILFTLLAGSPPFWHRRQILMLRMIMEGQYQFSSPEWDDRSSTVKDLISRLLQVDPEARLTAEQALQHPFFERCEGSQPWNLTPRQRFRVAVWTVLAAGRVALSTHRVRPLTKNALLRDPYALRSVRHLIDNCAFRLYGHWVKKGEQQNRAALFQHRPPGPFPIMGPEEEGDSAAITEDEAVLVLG
# FGFR1 kinase (h), sequence (P11362 22-822): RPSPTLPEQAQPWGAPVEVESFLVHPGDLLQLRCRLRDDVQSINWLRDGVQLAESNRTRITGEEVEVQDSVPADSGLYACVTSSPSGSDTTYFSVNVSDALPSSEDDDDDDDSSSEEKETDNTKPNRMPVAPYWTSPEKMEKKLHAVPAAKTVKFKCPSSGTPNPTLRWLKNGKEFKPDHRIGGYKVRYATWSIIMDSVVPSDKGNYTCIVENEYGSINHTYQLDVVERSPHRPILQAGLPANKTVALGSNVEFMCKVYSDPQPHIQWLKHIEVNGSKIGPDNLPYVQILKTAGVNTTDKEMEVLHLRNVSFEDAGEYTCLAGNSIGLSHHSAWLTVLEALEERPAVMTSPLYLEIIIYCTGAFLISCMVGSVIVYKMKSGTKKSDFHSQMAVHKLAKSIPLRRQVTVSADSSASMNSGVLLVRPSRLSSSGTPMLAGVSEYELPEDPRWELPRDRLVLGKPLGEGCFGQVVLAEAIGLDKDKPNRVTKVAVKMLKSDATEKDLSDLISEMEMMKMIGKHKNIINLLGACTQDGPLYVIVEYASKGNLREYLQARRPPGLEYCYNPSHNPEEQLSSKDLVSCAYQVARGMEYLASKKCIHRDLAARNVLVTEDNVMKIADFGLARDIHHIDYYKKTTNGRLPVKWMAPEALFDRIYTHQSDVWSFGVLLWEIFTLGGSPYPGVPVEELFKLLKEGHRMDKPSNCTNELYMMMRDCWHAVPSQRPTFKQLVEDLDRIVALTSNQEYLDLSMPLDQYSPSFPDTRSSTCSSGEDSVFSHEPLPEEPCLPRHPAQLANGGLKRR
# AurB/Aur1 kinase (h), sequence (Q96GD4 whole entry): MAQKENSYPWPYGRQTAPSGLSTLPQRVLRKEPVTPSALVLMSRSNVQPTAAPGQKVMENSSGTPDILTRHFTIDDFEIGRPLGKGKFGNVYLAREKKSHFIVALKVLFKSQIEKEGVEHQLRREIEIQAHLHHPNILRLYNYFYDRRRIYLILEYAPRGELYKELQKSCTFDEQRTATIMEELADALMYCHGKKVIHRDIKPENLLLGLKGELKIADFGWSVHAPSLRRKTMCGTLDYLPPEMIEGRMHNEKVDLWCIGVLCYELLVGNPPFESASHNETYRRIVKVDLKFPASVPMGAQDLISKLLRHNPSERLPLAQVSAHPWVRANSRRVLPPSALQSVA
# NEK7 (h), sequence (Q8TDX7 whole entry): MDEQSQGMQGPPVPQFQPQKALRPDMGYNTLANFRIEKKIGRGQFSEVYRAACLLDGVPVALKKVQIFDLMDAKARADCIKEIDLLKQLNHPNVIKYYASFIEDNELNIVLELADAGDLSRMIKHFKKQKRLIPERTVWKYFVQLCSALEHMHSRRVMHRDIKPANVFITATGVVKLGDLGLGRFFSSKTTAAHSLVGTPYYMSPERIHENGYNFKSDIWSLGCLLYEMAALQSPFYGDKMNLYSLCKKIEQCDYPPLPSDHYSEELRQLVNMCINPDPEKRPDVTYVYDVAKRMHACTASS
structure (smiles),measurement,setting,value
"COCCN1CCC(CNC(=O)c2n[nH]c3ccc(OC)cc23)CC1 [Compound 2, 5-methoxy-N-{[1-(2-methoxyethyl)-piperidin-4-yl]methyl}-1H-indazole-3-carboxamide]",inhibition at 10 µM,[1],0%
same,inhibition at 10 µM,[2],0%
same,inhibition at 10 µM,[3],0%
same,inhibition at 10 µM,[4],0%
same,inhibition at 10 µM,[5],0%
same,inhibition at 10 µM,[6],0%
same,inhibition at 10 µM,[7],3%
same,inhibition at 10 µM,[8],6%
same,inhibition at 10 µM,[9],90%
same,inhibition at 10 µM,[10],56%
same,inhibition at 10 µM,[11],71%
same,inhibition at 10 µM,[12],0%
same,inhibition at 10 µM,[13],11%
same,inhibition at 10 µM,[14],13%
same,inhibition at 10 µM,[15],0%
same,inhibition at 10 µM,[16],0%
same,inhibition at 10 µM,[17],8%
same,% inhibition of control values,[18],19%
same,inhibition at 10 µM,[19],0%
same,inhibition at 10 µM,[20],12%
same,inhibition at 10 µM,[21],4%
same,inhibition at 10 µM,[22],0%
same,inhibition at 10 µM,[23],1%
same,inhibition at 10 µM,[24],6%
same,inhibition at 10 µM,[25],1%
same,inhibition at 10 µM,[26],0%
same,inhibition at 10 µM,[27],0%
same,inhibition at 10 µM,[28],23%
same,inhibition at 10 µM,[29],0%
same,inhibition at 10 µM,[30],0%
same,inhibition at 10 µM,[31],0%
same,inhibition at 10 µM,[32],1%
same,inhibition at 10 µM,[33],0%
same,inhibition at 10 µM,[34],6%
